Common to all, as to type: in vivo
Assay [1] relates to brown rice planthoppers (Nilaparvata lugens). Description: Insecticidal test for brown rice planthoppers. To be noted: Nilaparvata lugens, 144 h; 500 ppm chemical solution, rice leaf sheaths soaked, third-instar larvae, six days, 25°C; read-out: death rate. The method, then: A 10% by mass emulsion of the presently invented compound prepared according to the above formulation example for an emulsion was diluted with water containing a spreader to prepare a chemical solution having a concentration of 500 ppm. Rice leaf sheaths were soaked in the chemical solution for approximately 10 seconds. After the completion of the soaking operation, the rice leaf sheaths treated with the chemical solution were air-dried, and then put in test tubes. Into each test tube, five third-instar brown rice planthoppers (Nilaparvata lugens) larvae were released, and the test tubes were capped with sponge and accommodated in a thermostatic room at 25°C. Six days after the accommodation, the number of dead brown rice planthoppers individuals in the test tubes were examined, and the death rate was calculated from a calculation formula shown below. The test was carried out in duplicate. [formula]

The subject of assay [2] is western flower thrips (Frankliniella occidentalis). Briefly: Insecticidal activity against western flower thrips. To be noted: Frankliniella occidentalis, 48 h; 500 ppm chemical solution sprinkled (2.5 mg/cm^2), larvae on common bean leaf, after 2 days; read-out: death rate. The method, then:
Wet filter paper was laid on each styrol cup having an inner diameter of 7 cm, and a common bean leaf cut into a 3 cm square was placed thereon, and inoculated with 20 western flower thrips (Frankliniella occidentalis) larvae. A 10% by mass emulsion of the presently invented compound prepared according to the above formulation example for an emulsion was diluted with water containing a spreader to prepare a chemical solution having a concentration of 500 ppm. For each styrol cup, 2.5 ml of the chemical solution prepared was sprinkled (2.5 mg/cm^2) with a rotary tower sprinkler. […] The test was carried out in duplicate.

Assay [3] deals with diamondback moths (Plutella xylostella). Briefly: Insecticidal test for diamondback moths. To be noted: Plutella xylostella, 144 h; 500 ppm chemical solution, leaves soaked, third-instar larvae, six days, 25°C; read-out: death rate. The protocol: A 10% by mass emulsion of the presently invented compound prepared according to the above formulation example for an emulsion was diluted with water containing a spreader to prepare a chemical solution having a concentration of 500 ppm. Chinese olive leaves were soaked in the chemical solution for approximately 10 seconds. After the completion of the soaking operation, the Chinese olive leaves treated with the chemical solution were air-dried, and then put in dishes. Into each dish, five third-instar diamondback moths (Plutella xylostella) larvae were released, and the dishes were capped and accommodated in a thermostatic room at 25°C. […] The test was carried out in duplicate.

Assay [4] has as its system cat fleas (Ctenocephalides felis). Briefly: whole plant or invertebrate. To be noted: 72 h, read-out: death rate. The protocol: In 1 ml of acetone, 1 mg of the presently invented compound was dissolved to prepare a chemical solution having a concentration of 1000 ppm. The bottom surface and side surface of each glass container having an inner wall surface area of 25 cm^2 were coated with 250 µl of the chemical solution, and acetone was then volatilized to form a thin film of the compound on the inner wall of the glass container.
Into each of the treated glass containers, five cat fleas (Ctenocephalides felis) imagoes (mixed-sex) were released, and the glass containers were capped and accommodated in a thermostatic room at 25°C. Three days after the release, the number of dead flea individuals were examined, and the death rate was calculated from the same calculation formula as in Test Example 1.

Take `N#Cc1ccc(NC(=O)C2=C(O)CC(c3cnc(Cl)c(-c4ccccc4)c3)NC2=O)cc1` (stereo not shown) [2-090]: the mortality at 500 µg/mL in assay [1], in assay [2] and in assay [3] was not below 90% throughout. Moreover, the mortality at 10 µg/cm2 in assay [4] was not below 50%.

As for `Cc1ccc(NC(=O)C2=C(O)CC(c3nc(-c4ccc(F)cc4F)no3)NC2=O)nc1` (stereo not shown) [3-175], the mortality at 500 µg/mL in assay [1], in assay [2] and in assay [3] was not below 90% in each case. In addition, in assay [4], the mortality at 10 µg/cm2 is not below 50%.

As to `O=C(Nc1ncccc1Br)C1=C(O)CC(c2nc(-c3cnccc3F)no2)NC1=O` (stereo not shown) [3-233], the mortality at 500 µg/mL in assay [1], in assay [2] and in assay [3] was not below 90% in each case. Further, in assay [4], the mortality at 10 µg/cm2 was not below 50%.

On to `O=C(Nc1ccc(F)cc1)C1=C(O)CC(c2nc(-c3ccncc3)no2)NC1=O` (stereo not shown) [3-031], for which the mortality at 500 µg/mL in assay [1], in assay [2] and in assay [3] was not below 90% in each case. Moreover, the mortality at 10 µg/cm2 in assay [4] is not below 50%.

Turning to `O=C(Nc1ccc(F)cn1)C1=C(O)CC(c2cnc(Cl)c(-c3ccc(F)nc3)c2)NC1=O` (stereo not shown) [2-009], the mortality at 500 µg/mL in assay [1], in assay [2] and in assay [3] was not below 90% in each case. The mortality at 10 µg/cm2 in assay [4] was not below 50%.

As for `O=C(Nc1ccc(F)cc1)C1=C(O)CC(c2nc(-c3cccc(C(F)(F)F)c3)no2)NC1=O` (stereo not shown) [3-005], the mortality at 500 µg/mL in assay [1], in assay [2] and in assay [3] was not below 90% each time. Moreover, the mortality at 10 µg/cm2 in assay [4] is not below 50%.

Consider `O=C(Nc1ccc(F)cn1)C1=C(O)CC(c2nc(-c3cnc(C(F)(F)F)s3)no2)NC1=O` (stereo not shown) [3-264], for which the mortality at 500 µg/mL in assay [1], in assay [2] and in assay [3] was not below 90% in each case. The mortality at 10 µg/cm2 in assay [4] is not below 50%.

As to `O=C(Nc1ccccn1)C1=C(O)CC(c2nc(-c3ccnc(F)c3)no2)NC1=O` (stereo not shown) [3-065], the mortality at 500 µg/mL in assay [1], in assay [2] and in assay [3] was not below 90% in each case. Also, the mortality at 10 µg/cm2 in assay [4] was not below 50%.

With `O=C(Nc1ccc(F)cn1)C1=C(O)CC(c2nc(-c3ccnc(F)c3)no2)NC1=O` (stereo not shown) [3-036, N-(5-fluoropyridin-2-yl)-6-(3-(2-fluoropyridin-4-yl)-1,2,4-oxadiazol-5-yl)-4-hydroxy-2-oxo-1,2,5,6-tetrahydropyridine-3-carboxamide], the mortality at 500 µg/mL in assay [1], in assay [2] and in assay [3] was not below 90% each time. Besides, in assay [4], the mortality at 10 µg/cm2 is not below 50%.

Consider `Cc1cccc(-c2cc(C3CC(O)=C(C(=O)Nc4cnccn4)C(=O)N3)cnc2Cl)c1` (stereo not shown) [2-261], for which the mortality at 500 µg/mL in assay [1], in assay [2] and in assay [3] was not below 90% throughout. Moreover, the mortality at 10 µg/cm2 in assay [4] was not below 50%.

`Cc1ccnc(NC(=O)C2=C(O)CC(c3nc(-c4ccncc4C)no3)NC2=O)c1` (stereo not shown) [3-176]: the mortality at 500 µg/mL in assay [1], in assay [2] and in assay [3] was not below 90% each time. In addition, the mortality at 10 µg/cm2 in assay [4] was not below 50%.

On to `O=C(Nc1ccc(F)cc1)C1=C(O)CC(c2nc(-c3cccnc3)no2)NC1=O` (stereo not shown) [3-007], for which the mortality at 500 µg/mL in assay [1], in assay [2] and in assay [3] was not below 90% throughout. The mortality at 10 µg/cm2 in assay [4] is not below 50%.

As for `O=C(Nc1ccc(Cl)nc1)C1=C(O)CC(c2cnc(Cl)c(-c3ccccc3)c2)NC1=O` (stereo not shown) [2-092], the mortality at 500 µg/mL in assay [1], in assay [2] and in assay [3] was not below 90% throughout. In addition, the mortality at 10 µg/cm2 in assay [4] is not below 50%.

For the compound `O=C(Nc1cccnc1)C1=C(O)CC(c2nc(-c3ccc(F)cc3F)no2)NC1=O` (stereo not shown) [3-177], the mortality at 500 µg/mL in assay [1], in assay [2] and in assay [3] was not below 90% throughout. Further, the mortality at 10 µg/cm2 in assay [4] was not below 50%.

On to `O=C(Nc1cncc(F)c1Br)C1=C(O)CC(c2cnc(Cl)c(-c3cnccc3F)c2)NC1=O` (stereo not shown) [2-139], for which the mortality at 500 µg/mL in assay [1], in assay [2] and in assay [3] was not below 90% each time. Further, in assay [4], the mortality at 10 µg/cm2 is not below 50%.

Regarding `O=C(Nc1ccc(F)cc1)C1=C(O)CC(c2nc(-c3cc(F)ccc3F)no2)NC1=O` (stereo not shown) [3-026], the mortality at 500 µg/mL in assay [1], in assay [2] and in assay [3] was not below 90% in each case. The mortality at 10 µg/cm2 in assay [4] was not below 50%.

Consider `O=C(Nc1ccc(F)nc1)C1=C(O)CC(c2cnc(Cl)c(-c3ccc(F)nc3)c2)NC1=O` (stereo not shown) [2-008], for which the mortality at 500 µg/mL in assay [1], in assay [2] and in assay [3] was not below 90% throughout. In addition, in assay [4], the mortality at 10 µg/cm2 was not below 50%.

`O=C(Nc1cc(Cl)ccn1)C1=C(O)CC(c2nc(-c3ccc(F)cc3F)no2)NC1=O` (stereo not shown) [3-155]: the mortality at 500 µg/mL in assay [1], in assay [2] and in assay [3] was not below 90% in each case. The mortality at 10 µg/cm2 in assay [4] was not below 50%.

Regarding `O=C(Nc1cc(Br)ccn1)C1=C(O)CC(c2cnc(Cl)c(-c3cnccc3F)c2)NC1=O` (stereo not shown) [2-144], the mortality at 500 µg/mL in assay [1], in assay [2] and in assay [3] was not below 90% each time. The mortality at 10 µg/cm2 in assay [4] was not below 50%.

Turning to `O=C(Nc1ccncn1)C1=C(O)CC(c2cnc(Cl)c(-c3ccc(F)nc3)c2)NC1=O` (stereo not shown) [2-101], the mortality at 500 µg/mL in assay [1], in assay [2] and in assay [3] was not below 90% in each case. For the same compound, the mortality at 10 µg/cm2 in assay [4] was not below 50%.

As for `O=C(Nc1ccc(C(F)(F)F)nc1)C1=C(O)CC(c2cnc(Cl)c(-c3ccc(F)nc3)c2)NC1=O` (stereo not shown) [2-012], the mortality at 500 µg/mL in assay [1], in assay [2] and in assay [3] was not below 90% in each case. Besides, the mortality at 10 µg/cm2 in assay [4] was not below 50%.

For the compound `O=C(Nc1cc(Br)c(F)cn1)C1=C(O)CC(c2cnc(Cl)c(-c3cnccc3F)c2)NC1=O` (stereo not shown) [2-140], the mortality at 500 µg/mL in assay [1], in assay [2] and in assay [3] was not below 90% each time. Also, in assay [4], the mortality at 10 µg/cm2 is not below 50%.

For the compound `Cc1cccc(-c2cc(C3CC(O)=C(C(=O)Nc4ccccn4)C(=O)N3)cnc2Cl)c1` (stereo not shown) [2-260], the mortality at 500 µg/mL in assay [1], in assay [2] and in assay [3] was not below 90% each time. Moreover, in assay [4], the mortality at 10 µg/cm2 was not below 50%.

`O=C(Nc1cnc(Cl)cn1)C1=C(O)CC(c2cnc(Cl)c(-c3ccc(F)nc3)c2)NC1=O` (stereo not shown) [2-011]: the mortality at 500 µg/mL in assay [1], in assay [2] and in assay [3] was not below 90% in each case. Moreover, the mortality at 10 µg/cm2 in assay [4] is not below 50%.

With `O=C(Nc1ccc(F)cc1)C1=C(O)CC(c2ccc(C(F)(F)F)c(-c3cncc(F)c3)c2)NC1=O` (stereo not shown) [1-002], the mortality at 500 µg/mL in assay [1], in assay [2] and in assay [3] was not below 90% throughout. Also, the mortality at 10 µg/cm2 in assay [4] is not below 50%.

Take `O=C(Nc1ccc(F)cc1)C1=C(O)CC(c2nc(-c3ccccn3)no2)NC1=O` (stereo not shown) [3-006]: the mortality at 500 µg/mL in assay [1], in assay [2] and in assay [3] was not below 90% in each case. The mortality at 10 µg/cm2 in assay [4] was not below 50%.

Turning to `O=C(Nc1ccc(F)cc1)C1=C(O)CC(c2nc(-c3ccccc3F)no2)NC1=O` (stereo not shown) [3-012], the mortality at 500 µg/mL in assay [1], in assay [2] and in assay [3] was not below 90% throughout. Further, the mortality at 10 µg/cm2 in assay [4] is not below 50%.

As to `O=C(Nc1cccc(F)n1)C1=C(O)CC(c2cnc(Cl)c(-c3cnccc3F)c2)NC1=O` (stereo not shown) [2-142], the mortality at 500 µg/mL in assay [1], in assay [2] and in assay [3] was not below 90% in each case. For the same compound, the mortality at 10 µg/cm2 in assay [4] was not below 50%.

These data come from patent EP4582413A1, “ARYLTETRAHYDROPYRIDINE COMPOUND AND PEST CONTROL AGENT” (priority 2022, dated 2024).
